This note sets out measurements from ChEMBL document CHEMBL1155084 (J Med Chem, 2008).

As a reminder, the IC50 is the midpoint of a concentration-inhibition curve. Low readings indicate inhibition by little substance, high ones a need for much substance.

The test system of assay [1] is Blood. In words: Inhibition of TNFalpha release in human whole blood. In kind it is functional, tissue-based.
Assay [2] concerns the target Mitogen-activated protein kinase 14 (Homo sapiens, UniProt Q16539). Briefly: Inhibition of p38alpha.
For assay [3], the system named is Blood. In words: Inhibition of IL1-beta release in human whole blood. In kind it is functional, tissue-based.

Chain of Mitogen-activated protein kinase 14 (Q16539 whole entry): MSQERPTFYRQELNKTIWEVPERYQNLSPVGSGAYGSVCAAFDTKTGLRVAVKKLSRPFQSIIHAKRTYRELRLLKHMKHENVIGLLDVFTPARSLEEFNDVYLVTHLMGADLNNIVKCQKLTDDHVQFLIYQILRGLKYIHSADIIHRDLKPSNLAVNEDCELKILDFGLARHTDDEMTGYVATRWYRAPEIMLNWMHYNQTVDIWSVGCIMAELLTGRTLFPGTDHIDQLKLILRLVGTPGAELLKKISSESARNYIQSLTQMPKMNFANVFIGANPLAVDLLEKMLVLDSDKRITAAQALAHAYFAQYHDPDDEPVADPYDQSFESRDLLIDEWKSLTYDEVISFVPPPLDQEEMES

Take `CSc1nc(-c2cccc(C(F)(F)F)c2)c(-c2ccnc(F)c2)[nH]1`: the IC50 in assay [1] was determined as 44200 nM; in assay [2], 1090 nM.
For `CSc1nc(-c2cccc(C(F)(F)F)c2)c(-c2ccnc(NC(C)c3ccccc3)c2)[nH]1` (stereo not drawn) the same measures were 12200 nM and 199 nM.
For `CSc1nc(-c2ccc(F)cc2)c(-c2ccnc(NCc3ccc(C(C)(C)C)cc3)c2)[nH]1` the same measures were 52600 nM and 1340 nM.
As for `CSc1nc(-c2ccc(F)cc2)c(-c2ccnc(NC(Cc3ccccc3)c3ccccc3)c2)[nH]1` (stereo not drawn), the IC50 worked out at 43500 nM in assay [1] and 348 nM in assay [2].
For `COCCn1c(SC)nc(-c2ccc(F)cc2)c1-c1ccnc(N[C@H](C)C2CCCCC2)c1` the same measures were 28000 nM and 359 nM.
For `CSc1nc(-c2ccc(F)cc2)c(-c2ccnc(NC(Cc3ccccc3)Cc3ccccc3)c2)[nH]1` the same measures were 43600 nM and 2150 nM.
In the case of `CSc1nc(-c2cccc(C(F)(F)F)c2)c(-c2ccnc(NC3CCCc4ccccc43)c2)[nH]1` (stereo not drawn), the IC50 in assay [1] worked out at 21200 nM; in assay [3] it was 10300 nM; in assay [2], 248 nM.
Consider `Fc1cc(-c2[nH]c(SCc3ccccc3)nc2-c2cccc(C(F)(F)F)c2)ccn1`, for which the figures for the IC50 in assay [1] and in assay [2] were 83600 nM and 1950 nM, respectively.
As to `Fc1ccc(-c2nc(SCc3ccccc3)[nH]c2-c2ccnc(Cl)c2)cc1`, the 50% inhibitory concentration (IC50) worked out at 50900 nM in assay [1] and 2900 nM in assay [2].
For `CSc1nc(-c2cccc(C(F)(F)F)c2)c(-c2ccnc(N[C@H](C)C3CCCCC3)c2)[nH]1` the same measures were 9890 nM and 36 nM.
For `CSc1nc(-c2ccc(F)cc2)c(-c2ccnc(NCc3ccc(F)cc3)c2)[nH]1` the same measures were 22200 nM and 173 nM.
For `CSc1nc(-c2ccc(F)cc2)c(-c2ccnc(OCc3cccs3)c2)[nH]1` the same measures were 38400 nM and 424 nM.
`CSc1nc(-c2ccc(F)cc2)c(-c2ccnc(OCc3ccccc3)c2)[nH]1`: the IC50 in assay [1] was 44700 nM; in assay [2], 436 nM.
For `CSc1nc(-c2ccc(F)cc2)c(-c2ccnc(N[C@H](C)C3CCCCC3)c2)[nH]1` the same measures were 3300 nM and 9 nM.
For `CSc1nc(-c2ccc(F)cc2)c(-c2ccnc(OC(C)c3ccccc3)c2)[nH]1` (stereo not drawn) the same measures were 44300 nM and 639 nM.
For `CCSc1nc(-c2cccc(C(F)(F)F)c2)c(-c2ccnc(F)c2)[nH]1` the same measures were 71500 nM and 657 nM.
Turning to `CCSc1nc(-c2ccc(F)cc2)c(-c2ccnc(Cl)c2)[nH]1`, the IC50 in assay [1] came to 36000 nM; in assay [2], 372 nM.
For `CSc1nc(-c2ccc(F)cc2)c(-c2ccnc(NC(C)C(C)(C)C)c2)[nH]1` (stereo not drawn) the same measures were 435 nM and 230 nM.
For `CSc1nc(-c2ccc(F)cc2)c(-c2ccnc(NC(C)CO)c2)[nH]1` (stereo not drawn) the same measures were 439 nM and 6 nM.
For `CSc1nc(-c2cccc(C(F)(F)F)c2)c(-c2ccnc(NCCCO)c2)[nH]1` the same measures were 5190 nM and 61 nM.
With `CCC(CO)Nc1cc(-c2[nH]c(SC)nc2-c2ccc(F)cc2)ccn1` (stereo not drawn), the IC50 in assay [1] is 239 nM; in assay [2], 10 nM.
In turn, `CSc1nc(-c2ccc(F)cc2)c(-c2ccnc(Cl)c2)[nH]1` came in with an IC50 in assay [2] of 1040 nM.
Take `CSc1nc(-c2ccc(F)cc2)c(-c2ccnc(NC(C)CC(C)C)c2)[nH]1` (stereo not drawn): the IC50 in assay [1] came out at 700 nM; in assay [2], 26 nM.
For `CSc1nc(-c2ccc(F)cc2)c(-c2ccnc(N[C@H]3CC[C@H](C)CC3)c2)[nH]1` the same measures were 15800 nM and 15 nM.
For `CSc1nc(-c2cccc(C(F)(F)F)c2)c(-c2ccnc(NCc3ccccc3)c2)[nH]1` the same measures were 38100 nM and 282 nM.
`COCCn1c(SC)nc(-c2ccc(F)cc2)c1-c1ccnc(NC2CCCC[C@H]2O)c1` (stereo partly drawn): in assay [2], half-maximal inhibition (IC50) was put at 211 nM. In other words, the sub-micromolar range.
On the same count and under the same terms, the figure for `CSc1nc(-c2ccnc(NC3CCOCC3)c2)c(-c2ccc(F)cc2)[nH]1` is 5 nM.
On to `CSc1nc(-c2ccc(F)cc2)c(-c2ccnc(NC3CCCCC3C)c2)[nH]1` (mixture of isomers), for which the IC50 in assay [1] amounted to 458 nM; in assay [3], 136 nM; in assay [2], 13 nM.
In the case of `CSc1nc(-c2ccc(F)cc2)c(-c2ccnc(NCc3cccc4ccccc34)c2)[nH]1`, the values for the IC50 in assay [1] and in assay [2] were 28000 nM and 171 nM, respectively.
Compound `Fc1ccc(-c2nc(SCc3ccccc3)[nH]c2-c2ccnc(F)c2)cc1` had an IC50 in assay [2] of 258 nM.
For `CSc1nc(-c2ccc(F)cc2)c(-c2ccnc(NCc3cc4ccccc4s3)c2)[nH]1`, the IC50 in assay [1] stood at 55500 nM; in assay [2], 314 nM.
Regarding `CSc1nc(-c2ccc(F)cc2)c(-c2ccnc(NCC(C)c3ccccc3)c2)[nH]1` (stereo not drawn), the IC50 in assay [1] was 3930 nM; in assay [3], 10100 nM; in assay [2] it was 17 nM.
In the case of `COCCn1c(SC)nc(-c2ccc(F)cc2)c1-c1ccnc(NC2CCOCC2)c1`, the figures for the IC50 in assay [1] and in assay [2] were 5880 nM and 38 nM, respectively.
Consider `CSc1nc(-c2cccc(C(F)(F)F)c2)c(-c2ccnc(NC(C)CCc3ccccc3)c2)[nH]1` (stereo not drawn), for which the values for the IC50 in assay [1], in assay [3] and in assay [2] were 4640 nM, 1290 nM and 49 nM, respectively.
As for `CSc1nc(-c2ccnc(OCC3CCCO3)c2)c(-c2ccc(F)cc2)[nH]1` (stereo not drawn), the IC50 in assay [1] stood at 11200 nM; in assay [2], 542 nM.
Compound `COCCn1c(SC)nc(-c2ccc(F)cc2)c1-c1ccnc(Nc2ccccc2)c1` registered an IC50 in assay [2] of 51 nM.
With `CSc1nc(-c2ccc(F)cc2)c(-c2ccnc(NCc3ccncc3)c2)[nH]1`, the IC50 in assay [1] was found to be 6220 nM; in assay [2], 119 nM.
On to `CSc1nc(-c2ccc(F)cc2)c(-c2ccncc2)n1C`, for which the IC50 in assay [1] came out at 5100 nM; in assay [3], 80 nM.
On to `CSc1nc(-c2ccnc(NCCCO)c2)c(-c2ccc(F)cc2)[nH]1`, for which the IC50 in assay [1] came to 680 nM; in assay [2], 15 nM.
For `CSc1nc(-c2ccc(F)cc2)c(-c2ccnc3ccccc23)[nH]1`, the figures for the IC50 in assay [1], in assay [3] and in assay [2] were 16800 nM, 35000 nM and 411 nM, respectively.
In assay [2], `COCCn1c(SC)nc(-c2ccc(F)cc2)c1-c1ccnc(N[C@H](C)CO)c1` yielded a 50% inhibitory concentration (IC50) of 485 nM.
On to `CSc1nc(-c2cccc(C(F)(F)F)c2)c(-c2ccnc(NCc3cccs3)c2)[nH]1`, for which the IC50 in assay [1] was 26800 nM; in assay [2] it was 239 nM.
For `CSc1nc(-c2cccc(C(F)(F)F)c2)c(-c2ccnc(N[C@H]3CC[C@H](O)CC3)c2)[nH]1` the same measures were 1680 nM and 11 nM.
With `CSc1nc(-c2ccc(F)cc2)c(-c2ccnc(N[C@H]3CC[C@@H](C)CC3)c2)[nH]1`, the IC50 was 3680 nM in assay [1] and 31 nM in assay [2].
With `CSc1nc(-c2ccc(F)cc2)c(-c2ccnc(N[C@H]3CC[C@H](O)CC3)c2)[nH]1`, the IC50 in assay [1] worked out at 386 nM; in assay [2], 3 nM.
As to `CSc1nc(-c2ccc(F)cc2)c(-c2ccnc(NCc3ccccc3)c2)[nH]1`, the IC50 in assay [2] came to 139 nM.
With `CSc1nc(-c2ccc(F)cc2)c(-c2ccnc(OC(C)CCCC(C)C)c2)[nH]1` (stereo not drawn), the IC50 in assay [1] came out at 42700 nM; in assay [2], 641 nM.
As to `COCCn1c(SC)nc(-c2ccc(F)cc2)c1-c1ccnc(NCC(C)O)c1` (stereo not drawn), the values for the IC50 in assay [1] and in assay [2] were 6380 nM and 146 nM, respectively.
For `COCCn1c(SC)nc(-c2ccc(F)cc2)c1-c1ccnc(NC[C@H]2CCCC[C@@H]2O)c1` the same measures were 11500 nM and 235 nM.
With `CSc1nc(-c2ccc(F)cc2)c(-c2ccnc(NCc3ccc(C)o3)c2)[nH]1`, the IC50 turned out to be 7430 nM in assay [1] and 113 nM in assay [2].
For `CSc1nc(-c2ccc(F)cc2)c(-c2ccnc(N[C@@H](C)C3CCCCC3)c2)[nH]1` the same measures were 27600 nM and 153 nM.
Consider `CSc1nc(-c2cccc(C(F)(F)F)c2)c(-c2ccnc(NC(C)C(C)C)c2)[nH]1` (stereo not drawn), for which the values for the IC50 in assay [1], in assay [3] and in assay [2] were 2930 nM, 1360 nM and 34 nM, respectively.
Take `CSc1nc(-c2ccnc(NC3CCCc4ccccc43)c2)c(-c2ccc(F)cc2)[nH]1` (stereo not drawn): the figures for the IC50 in assay [1], in assay [3] and in assay [2] were 2810 nM, 16200 nM and 47 nM, respectively.
Regarding `CSc1nc(-c2ccc(F)cc2)c(-c2ccnc(NC3CCC(C)CC3)c2)[nH]1` (mixture of isomers), the IC50 turned out to be 5400 nM in assay [1] and 20 nM in assay [2].
For `CSc1nc(-c2cccc(C(F)(F)F)c2)c(-c2ccnc(NCC(C)c3ccccc3)c2)[nH]1` (stereo not drawn) the same measures were 23000 nM and 93 nM.
For `CSc1nc(-c2ccc(F)cc2)c(-c2ccnc(NCCC(C)C)c2)[nH]1` the same measures were 2430 nM and 90 nM.
For `CSc1nc(-c2ccc(F)cc2)c(-c2ccnc(NC(CO)C(C)C)c2)[nH]1` (stereo not drawn) the same measures were 1060 nM and 34 nM.
Take `CSc1nc(-c2ccc(F)cc2)c(-c2ccnc(F)c2)[nH]1`: the IC50 came out at 29900 nM in assay [1] and 559 nM in assay [2].
For `CSc1nc(-c2cccc(C(F)(F)F)c2)c(-c2ccnc(NCc3ccco3)c2)[nH]1` the same measures were 14800 nM and 191 nM.
As for `CSc1nc(-c2ccc(F)cc2)c(-c2ccnc(NCCc3cc(C)ccc3C)c2)[nH]1`, the IC50 in assay [1] is 51500 nM; in assay [3], 59300 nM; in assay [2], 82 nM.
Turning to `CSc1nc(-c2ccc(F)cc2)c(-c2ccnc(NCCO)c2)[nH]1`, the concentration for half-maximal inhibition (IC50) in assay [1] was 2040 nM; in assay [2] it was 45 nM.
For `COCCn1c(SC)nc(-c2ccc(F)cc2)c1-c1ccnc(NC(C)CO)c1` (stereo not drawn) the same measures were 17400 nM and 292 nM.
Turning to `CCSc1cc(-c2nc(SC)[nH]c2-c2ccc(F)cc2)ccn1`, the IC50 in assay [1] came out at 24100 nM; in assay [3], 61300 nM; in assay [2], 87 nM.
Turning to `CSc1nc(-c2ccnc(NC3CCCCC3)c2)c(-c2ccc(F)cc2)[nH]1`, the figures for the half-inhibitory concentration (IC50) in assay [1] and in assay [2] were 362 nM and 20 nM, respectively.
As to `CSc1nc(-c2ccc(F)cc2)c(-c2ccnc(NCCC(C)(C)C)c2)[nH]1`, the IC50 was 4540 nM in assay [1] and 126 nM in assay [2].
`CCSc1nc(-c2ccc(F)cc2)c(-c2ccnc(F)c2)[nH]1` yielded an IC50 in assay [2] of 213 nM.
